Calls of active or inactive are those of the source.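 Rule for the calls: active = AC50 no more than ten times the top concentration tested, that is within one log above it; inconclusive = flat curve fit with activity between 30% and 70%, or invalid poor fit; inactive = AC50 beyond ten times the top tested dose.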 A value given as a limit tells only on which side of the number the result lay.

The subject of this experiment is S. cerevisiae Mot1-301 ts growth rescue, BacTiter-Glo ATP luminescence. Kind of experiment: growth rescue of Mot1-301 ts yeast, confirmation, SUMOylation pathway inhibitor project, whole organism, S. cerevisiae, Mot1-301 ts mutant, luminescence, dose retest (AID 463204).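 Note: growth at restrictive 38.5 degrees C of Mot1-301 OY566 strain; actives raise luminescence by restoring growth of the ts mutant at high temperature.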
On to `Cc1ccc(-n2c(-c3ccco3)nc3c(cnn3-c3ccc(C)cc3)c2=O)cc1`, for which the AC50 is > 42 µM (inactive).

For `CS(=O)(=O)C1=NSC2=NC(=O)/C(=C\c3ccc(OS(=O)(=O)c4ccccc4)cc3)C(=N)N21`, the AC50 is > 42 µM (inactive).

On to `CCOC(=O)c1oc2c(c1C)C(=O)CCC2`, for which the AC50 is > 42 µM (inactive).

With `COc1ccccc1C1NC(=O)CS1` (stereo unspecified), the AC50 is > 42 µM (inactive).

`COc1cccc(C(=O)N2CCN(S(=O)(=O)Cc3ccccc3)CC2)c1OC`: the AC50 was > 42 µM (inactive).

As for `O=C(CSc1nnc(NC(=O)CN2CCOCC2)s1)Nc1ccccc1`, the AC50 is > 42 µM (inactive).

With `CCNC(=O)NC(C(=O)OC)C12CC3CC(CC(C3)C1)C2` (stereo unspecified), the AC50 was > 42 µM (inactive).

For the compound `O=C(O)c1cn(Cc2ccccn2)c(=O)c2ccccc12`, the AC50 was > 42 µM (inactive).

Regarding `CCN(CC)S(=O)(=O)c1cc(NC(=O)COC(=O)CCc2nc3ccccc3s2)ccc1C`, the AC50 is > 42 µM (inactive).

Turning to `O=c1oc2cc(S(=O)(=O)NCCCO)ccc2c2ccc(S(=O)(=O)NCCCO)cc12`, the AC50 is > 42 µM (inactive).

`CC(=O)c1ccc(N2CCN(CC(=O)Nc3cc(C)on3)CC2)cc1`: the AC50 was > 42 µM (inactive).

Consider `Cc1cc2ncc(C(=O)N=CN(C)C)cn2n1`, for which the AC50 was > 42 µM (inactive).

With `CNS(=O)(=O)c1cccc(C(=O)NCC2(N3CCCCC3)CCCCC2)c1`, the half-maximal activity concentration (AC50) is 39.2 µM.

Take `CCS(=O)(=O)N1CCC(C(=O)N2CCc3ccccc3C2)CC1`: the AC50 is > 42 µM (inactive).

With `Cc1ccc(C)c(NC(=S)NC(=O)c2cncc(Br)c2)c1`, the AC50 is > 42 µM (inactive).

On to `Cc1cccc(N2CN=c3s/c(=C\c4ccccn4)c(=O)n3C2)c1`, for which the AC50 is > 42 µM (inactive).

As to `NC(=O)C1CCCN(C(=S)Nc2cccc3ccccc23)C1` (stereo unspecified), the AC50 was > 42 µM (inactive).

In the case of `COc1ccc([N+](=O)[O-])c2c(=O)ccoc12`, the AC50 was > 42 µM (inactive).

As for `C/C(CC(=O)Nc1cccc(Cl)c1Cl)=N\NC(=O)c1ccccc1C`, the AC50 is > 42 µM (inactive).

For `CC(SC#N)C(=O)C12CC3CC(CC(C3)C1)C2` (stereo unspecified), the AC50 was 6.33 µM.

In the case of `O=c1[nH]nc(Cc2ccc(-c3ccccc3Cl)o2)c2ccccc12`, the AC50 is > 42 µM (inactive).

On to `COC(=O)c1cn(C(=O)c2cccc3ccccc23)c2ccccc12`, for which the AC50 is > 42 µM (inactive).

Consider `CCOc1ccccc1Nc1nnc(SCc2nnc(-c3cc(OC)c(OC)c(OC)c3)o2)s1`, for which the AC50 is > 42 µM (inactive).

Regarding `COc1ccc(S(=O)(=O)Cc2ccc(C(=O)NCc3cccs3)o2)cc1`, the AC50 is > 42 µM (inactive).

In the case of `Cc1ccc(N=c2ssnc2Cl)cc1`, the AC50 is 3.13 µM.

Take `Cc1ccc(C(=O)NC(Cc2c[nH]c3ccccc23)C(=O)O)o1` (stereo unspecified): the AC50 was > 42 µM (inactive).

Turning to `CCCCC(=O)N/N=C(\C)CC(=O)Nc1cc(Cl)ccc1OC`, the AC50 was > 42 µM (inactive).

On to `CCC(NC(=O)c1ccccc1NC(=O)c1ccco1)C(=O)NC1CCCCC1` (stereo unspecified), for which the AC50 was > 42 µM (inactive).

As for `CC(=O)N1N=C(c2ccc(C(C)(C)C)cc2)OC1(C)C`, the AC50 is > 42 µM (inactive).

With `Cc1cc2nc(CCl)cc(=O)n2[nH]1`, the AC50 is > 42 µM (inactive).

As for `O=C(N/N=C\c1cn(-c2ccccc2)nc1-c1ccccc1)c1ccc(Br)o1`, the AC50 was > 42 µM (inactive).

Consider `[N-]=[N+]=NCCN1CCC(O)CCC1=O` (stereo unspecified), for which the AC50 is > 42 µM (inactive).

Consider `O=C(O)C1C2CCC(O2)C1C(=O)NCCC1=CCCCC1` (stereo unspecified), for which the AC50 was > 42 µM (inactive).

As to `COc1ccccc1-c1nnc(SCC(=O)NC2CCS(=O)(=O)C2)n1N` (stereo unspecified), the AC50 is > 42 µM (inactive).

For `CCn1c(SCC(N)=O)nnc1-c1cc2c(C)nn(-c3ccccc3)c2s1`, the AC50 is > 42 µM (inactive).

Regarding `CCCCCC(=O)Nc1ccc(-c2csc(N)n2)cc1`, the AC50 was > 42 µM (inactive).

As for `CC(C)c1cccc(OCCCCN(C)C)c1`, the AC50 was > 42 µM (inactive).

Turning to `Oc1c(Br)cc(Br)cc1C=Nc1cccnc1`, the AC50 was 4.88 µM.

As for `Cc1cc(NC(=O)CC2CCCC2)ccc1Br`, the AC50 is > 42 µM (inactive).

For `Cc1nnc(SCC(=O)NCc2ccccc2Cl)[nH]c1=O`, the AC50 is > 42 µM (inactive).

As to `CC(C)n1c(CN(C)c2ccccc2)nc2ccccc21`, the AC50 is > 42 µM (inactive).

As for `Cc1cc(C)c[n+](-c2nc3ccccc3nc2[N-]S(=O)(=O)c2ccc(Br)s2)c1`, the AC50 is > 42 µM (inactive).

For the compound `O=C1c2nccnc2C(=O)N1c1ccc(C(F)(F)F)cc1`, the AC50 is > 42 µM (inactive).

As to `COc1cc(C(=O)Nc2sc3c(c2C(=O)O)CCC(C)C3)cc(OC)c1OC` (stereo unspecified), the AC50 was > 42 µM (inactive).

With `C=CCN(C(=O)CNC(=O)c1ccco1)C(C(=O)NC1CCCCC1)c1ccccc1` (stereo unspecified), the AC50 was > 42 µM (inactive).

Turning to `COc1ccccc1CNC(=O)C1CCC(CNS(=O)(=O)c2ccc(C)cc2)CC1` (stereo unspecified), the AC50 was > 42 µM (inactive).

For `Cc1cc2c(cc1C)-c1nnc(-c3ccc4ccccc4n3)n1C(C)(C)C2`, the AC50 was > 42 µM (inactive).

As for `COc1cc2c(cc1OC)CN(S(=O)(=O)c1cccc(F)c1)CC2`, the AC50 is > 42 µM (inactive).

`COc1ccc(Nc2oc(-c3cccs3)nc2C#N)cc1`: the AC50 is > 42 µM (inactive).

`COc1ccc(OCC(=O)Nc2ccc(C)cc2)cc1`: the AC50 is > 42 µM (inactive).

With `OC[C@@H](O)CCl`, the AC50 was > 42 µM (inactive).

Consider `CCCCN(C)C(=O)c1cc2c(Cl)nc3ccccc3c2s1`, for which the AC50 was > 42 µM (inactive).

Consider `Fc1ccc(-c2cc(C(F)(F)F)nc(NCc3cccs3)n2)cc1`, for which the AC50 is > 42 µM (inactive).

As for `C=C(C)Cn1c(N)cc(=O)nc1SCC(=O)Nc1cccc(C(F)(F)F)c1`, the AC50 is > 42 µM (inactive).

Regarding `CC(=O)Nc1cccc(NC(=S)Nc2ccc(F)cc2F)c1`, the AC50 is > 42 µM (inactive).

For `COc1ccc(OC)c(Cc2nnc(CCC(=O)NCc3ccsc3)o2)c1`, the AC50 is > 42 µM (inactive).

As for `Cc1ccc(/C=C/C(=O)c2ccc([N+](=O)[O-])o2)cc1`, the AC50 is 3.5 µM.

As to `C/C(=N/Nc1ccc(F)cc1)c1ccc(Cl)s1`, the AC50 was > 42 µM (inactive).

Consider `CCCc1nnc(NC(=O)c2cn(CC)c3cc(N4CCN(C)CC4)c(F)cc3c2=O)s1`, for which the AC50 was > 21 µM (inactive).

Turning to `COc1cc(C(=O)NCCC2=CCCCC2)ccc1OC1CCN(C(C)=O)CC1`, the AC50 is > 42 µM (inactive).

Take `Oc1c(Cl)cc(Cl)cc1/C=N/c1nc(-c2ccc(Cl)cc2)cs1`: the AC50 was 34.1 µM.

With `COc1ccc(N2CCN(C(c3cccs3)C(C)NS(C)(=O)=O)CC2)cc1` (stereo unspecified), the AC50 was > 42 µM (inactive).

In the case of `Cc1ccc(NC(=O)CN2C(=O)COc3ccc(S(=O)(=O)N4CCOCC4)cc32)cc1F`, the AC50 is > 42 µM (inactive).

`CCC(C)(C(=O)NC1CCCC1)N(C(=O)c1ccccn1)c1ccc(C)cc1` (stereo unspecified): the AC50 was > 42 µM (inactive).

Take `CN(CCOc1ccc(Cl)cc1)CC(=O)Nc1ccc(OC(F)F)cc1`: the AC50 is > 42 µM (inactive).

Regarding `Cc1ccc(CNC(=O)CCn2cc(-c3ccc(C)cc3)nc2CCN)cc1`, the AC50 is > 42 µM (inactive).

`COc1ccc(CN2CCN(C(=O)c3cc(-c4cccnc4)nc4ccc(Cl)cc34)CC2)c(OC)c1OC`: the AC50 was > 42 µM (inactive).

In the case of `O=C1CSC(c2ccc(F)c(F)c2)N1c1ccccc1F` (stereo unspecified), the AC50 was > 42 µM (inactive).

Regarding `CCOC(=O)c1c(C)[nH]c2c1cc(O)c1ccccc12`, the AC50 is > 42 µM (inactive).

`O=C(O)CN(c1ccccn1)S(=O)(=O)c1ccc(Cl)cc1`: the AC50 is > 42 µM (inactive).

`CNc1csc(C)c(C)c1=O`: the AC50 is > 42 µM (inactive).

For `COC(=O)c1c(C)cc(O)c(C=O)c1O`, the AC50 is 17.7 µM.

Consider `O=C(NCc1cccc(F)c1F)C1CCC(=O)N(C2CC2)C1` (stereo unspecified), for which the AC50 was > 42 µM (inactive).

Regarding `C=CCn1c(CCC)nc2ccccc21`, the AC50 was > 42 µM (inactive).

Consider `COc1ccccc1NC(=O)c1nn(-c2cccc(C(F)(F)F)c2)ccc1=O`, for which the AC50 is > 42 µM (inactive).

Regarding `CCOC(=O)C1(Cc2cccc(OC)c2)CCCN(S(=O)(=O)c2cccnc2)C1` (stereo unspecified), the AC50 is > 42 µM (inactive).

`COc1cccc(N2CCN(C3CCCC(C)C3)CC2)c1` (stereo unspecified): the AC50 was > 42 µM (inactive).

On to `O=C1CC(c2c[nH]c3ccccc23)C(=O)N1c1ccccc1` (stereo unspecified), for which the AC50 was > 42 µM (inactive).

`Cc1ccc(/C=C/C(=O)OCC(=O)N(CC(C)C)c2c(N)n(Cc3ccccc3)c(=O)[nH]c2=O)o1`: the AC50 is > 21 µM (inactive).

`COc1ccc(NC(=O)CC(C)C)c(OC)c1`: the AC50 was > 42 µM (inactive).

As to `Cc1ccc(N2CN(CCc3ccccc3)CNC2=S)cc1`, the AC50 was > 42 µM (inactive).

For the compound `CC(C)c1ccc(C2C(C(=O)c3ccco3)=C(O)C(=O)N2CCN2CCOCC2)cc1` (stereo unspecified), the AC50 was > 42 µM (inactive).

`c1ccc(-c2nc(NCc3ccco3)c3ccccc3n2)nc1`: the AC50 is > 42 µM (inactive).

`CCCCn1c(SCC(=O)Nc2cc(C)on2)nnc1-c1ccco1`: the AC50 is > 42 µM (inactive).

In the case of `O=c1nc2ccc(Cl)cn2c2ccc(S(=O)(=O)N3CCOCC3)cc12`, the AC50 is > 42 µM (inactive).

Turning to `COc1cc(S(=O)(=O)NC2CCCC2)c(OC)cc1C`, the AC50 was > 42 µM (inactive).

On to `O=S1(=O)NC(c2ccccc2)CC(CC2CCCCC2)O1` (stereo unspecified), for which the AC50 was 38.7 µM.

`CC1CCN(CCNC(=O)C2CCCN(S(=O)(=O)c3cccc4nsnc34)C2)CC1` (stereo unspecified): the AC50 was > 42 µM (inactive).

As for `CCCCc1nnc(NC(=O)CSc2nc(O)c(-c3ccccc3)c(=O)[nH]2)s1`, the AC50 was > 42 µM (inactive).

With `Cc1ccc(S(=O)(=O)Nc2n[nH]nc2C(=O)NC2CCCCC2)cc1`, the AC50 was > 42 µM (inactive).

For the compound `CCC(C)(C)NC(=O)C(c1ccc(C)cc1)N(CC1CCCO1)C(=O)CNC(=O)c1cccs1` (stereo unspecified), the AC50 is > 42 µM (inactive).
